Data on four compounds can be found in patent US7824872B2, “Pharmaceutical agents” (Theravalues Corporation, priority 2003, dated 2010).

Holding throughout (format): cell-based
In experiment [1] the test system is Pim-1. Description: Western blotting of Pim-1 in cells cultured with a proteasome inhibitor. The settings on record: PCI-43 cells, normoxia, 50 μM ALLN, 6 and 12 hours. The procedure: The cells used were HCT116 (colon cancer cell line), HePG2 (liver cancer cell line), KMP-4 (pancreatic cancer cell line), PCI-10 (pancreatic cancer cell line), PCI-35 (pancreatic cancer cell line), and PCI-43 (pancreatic cancer cell line). Each type of cell was cultured for 16 hours under hypoxia (1% oxygen, 5% carbondioxide), or normoxia (20% oxygen, 5% carbondioxide). RNA was extracted from the cultured cells using Trizol reagent, and proteins were extracted from the cultured cells using 1% NP-40 lysis buffer ([…] pH7.5, […], 2 μM EDTA, 1 μM EGTA, 50 μM NaF, 1 μM Na3VO4, 1 mM PMSF).
Proteins were detected by Western blotting. More specifically, the above-mentioned samples were electrophoresed through 12% polyacrylamide gels, and then blotted onto nitrocellulose membranes. The membranes were blocked with blocking buffer (5% skim milk, in physiological Tween-phosphate buffer), reacted with anti-Pim-1 antibody for one hour, then incubated with peroxidase-conjugated goat anti-mouse IgG secondary antibody, and detected using an ECL detection kit (Amersham).
Whether or not Pim-1 is degraded by proteases under normoxia was investigated. PCI-43 cells were cultured under hypoxia and normoxia. Cells cultured under hypoxia were sampled before culturing, and after culturing for 4, 12, and 24 hours. […]
(In western blotting, separated proteins are transferred to a membrane and probed.)

Experiment [2] relates to PCI-43 cells. In words: Number of live cells after 48 hours of treatment with anticancer agents (IC50). The conditions noted are these: concentration halving the number of live cells. The procedure: (§1) The sensitivity of solid cancer cells to anticancer agents under low and normal oxygen partial pressures was investigated. Three types of solid pancreatic cancer cell lines (PCI-35 cells, KMP-4 cells, and PCI-43 cells) were used as the cells. For each type of cell, 2×10^3 cells were cultured for six hours in the presence of 50 μg/mL of cisplatin under low oxygen partial pressure (1% oxygen, 5% carbondioxide; hereinafter, the same values in the Examples) or normal oxygen partial pressure (20% oxygen, 5% carbondioxide; hereinafter, the same values in the Examples). After culturing, the cells were washed twice with physiological phosphate buffer (pH7.4) to prepare samples. Dulbecco's Modified Eagle's Medium/F12 was used as the medium for culturing (hereinafter, unless particularly specified, use of the same medium is assumed).
Using gemcitabine, adriamycin, and cisplatin, and using PCI-43 cells, measurements were made as in Example 1. The concentrations of gemcitabine and adriamycin were 0.1 to 1 μmol and 0.1 to 5 μmol, respectively. IC50 values were calculated from the measured results, as shown below.
The number of live cells was determined after 48 hours of treatment with various concentrations of anticancer agents, and the concentrations of anticancer agents needed to half the number of live cells present when the various anticancer agents were not added were defined as IC50 values.

The test system of experiment [3] is PCI-35 cells, KMP-4 cells, and PCI-43 cells. Description: FACS analysis of apoptosis (PI / anti-anexin V staining) under hypoxia and normoxia, three pancreatic cancer cell lines. The settings on record: 50 μg/mL cisplatin, six hours, PCI-35, KMP-4 and PCI-43 cells. The procedure: as §1
(§2) The cells described above were stained with propidium iodide (PI) and FITC-conjugated anti-anexin V, and FACS analysis was performed using FACS calibur (Becton Dickinson).
In FIG. 1, “Normoxia” means under normal oxygen partial pressure, and “Hypoxia” means under low oxygen partial pressure (the same hereinafter). The FACS analyses in the Examples can be described as staining of cells with PI and anti-anexin V, and sorting of cells based on the intensity of staining to show distributions such as those in FIG. 1. […]
For orientation: A flow cytometer gives signals particle by particle.

For experiment [4], the system named is PCI-43 cells. In words: FACS analysis of apoptosis (PI / anti-anexin V staining) under hypoxia and normoxia. The conditions noted are these: 50 μg/mL cisplatin, 12 and 24 hours. The procedure: as §1, §2
In FIG. 1, “Normoxia” means under normal oxygen partial pressure, and “Hypoxia” means under low oxygen partial pressure (the same hereinafter). […]
PCI-43 cells were cultured for up to 24 hours under the same conditions as in Example 1. Samples obtained before culturing, and after culturing for 12 hours and 24 hours were analyzed as in Example 1. […]

[5] abbreviates: hypoxia (1% oxygen, 5% carbondioxide), read-out: IC50 (μM), Hypoxia.
[6] abbreviates: normoxia (20% oxygen, 5% carbondioxide), read-out: IC50 (μM), Normoxia.

Where two headings read alike, the source gives them in different places. Where a SMILES comes first, the peptide text is derived from it. [ ]: non-standard residue; d: D form. Nle = CCCC[C@H](N)C(=O)O

What is called IC50 is the concentration that inhibits the measured activity by half.

For `CCCC[C@@H](C=O)NC(=O)[C@H](CC(C)C)NC(=O)[C@H](CC(C)C)NC(C)=O` [ALLN, N-acetyl-L-leucinyl-L-leucinyl-L-norleucinal] (Ac-Leu-Leu-[Nle]-aldehyde), the “amount of Pim-1 (Western blotting)” value in experiment [1] is on record as “the amount of Pim-1 also increased with time under normoxia”.

In the case of `COc1cccc2c1C(=O)c1c(O)c3c(c(O)c1C2=O)C[C@@](O)(C(=O)CO)C[C@@H]3O[C@H]1C[C@H](N)[C@H](O)[C@H](C)O1` [Adriamycin, adriamycin], the IC50 in experiment [2] (setting [5]) worked out at 1.9 µM; in experiment [2] (setting [6]), 0.3 µM.

`N.N.[Cl][Pt][Cl]` [Cisplatin, cisplatin]: the “induction of apoptosis under normoxia compared with hypoxia” value in experiment [3] is “approximately twice that under hypoxia”. In experiment [4], the “proportion of apoptotic cells under hypoxia compared with normoxia” value is “approximately half that under normoxia”. Also, the IC50 in experiment [2] (setting [5]) stood at 27.7 µM; in experiment [2] (setting [6]), 18.6 µM.

`Nc1ccn([C@@H]2O[C@H](CO)[C@@H](O)C2(F)F)c(=O)n1` [Gemcitabine, gemcitabine]: the figures for the IC50 in experiment [2] (setting [5]) and in experiment [2] (setting [6]) were 1.56 µM and 0.272 µM, respectively.
